Source: patent US20050013875A1, “Immunopotentiators in thermotherapy for cancer” (priority 2001, published 2005)

Legend:
MFH cells = assay: Tumor regression in MFH cancer-carried F344 rats under MCL hyperthermia (tumor tissue volume); format: in vivo, rat; conditions: (GGA+AMF) Group: hyperthermia using MCL and GGA in combination, magnetic field irradiation three times, among 8 individuals
Experimental: (§1) As experimental individuals, F344 rats (female, 7 to 8-weeks old) were used. MFH cells 1×10^7 cultured on Petri dish for cell-cultivation were dispersed in about 50 μl of a physiologically buffered saline, and then, the cells suspension was transplanted subcutaneously to a right leg of an experimental individual by using a scalp vein needle (25G×5/8″) (Terumo Corporation) to make a cancer-carried experimental individual. Nembutal (available from Dainippon Pharmaceutical Co., Ltd.) was used for anesthesia, and that diluted to five times (50 mg/kg body weight) was administered to abdominal cavity.
A slurry of the magnetite (particle diameter 10 nm; available from Toda Kogyo Corporation) was sufficiently washed with a distilled water to remove unnecessary ion components, subjected to ultrasonic wave treatment, to obtain colloidal magnetite. […]
Under anesthesia of experimental individuals, a longer diameter and a shorter diameter of the tumor tissue were measured by using calipers and calculated out from the following formula. […]

HSP70 [1] = assay: HSP70 immunostain of tumor tissue after GGA administration; format: in vivo; conditions: F344 rat MFH tumor, GGA locally injected 12 hours after MCL, tumor cut out 2 hours after GGA, FIG. 1
Experimental: as §1
Under anesthesia of a rat, MCL with a concentration of 7.5 mg/ml and 3.3 mg of net weight magnetite was administered to the tumor tissue of the rat 10 days after transplantation of the MFH cells over 30 minutes by using a microsyringe pump (SP100i syringe pump, manufactured by WPI Co.), and thereafter, the rat was allowed to stand for 30 minutes. Magnetic field irradiation was carried out after 24 hours from injection of the MCL.

HSP70 [2] = assay: In vitro HSP70 expression in heated MFH cells (immunoassay kit, Western Blot); format: cell-based; conditions: GGA 10^-5 M or 10^-4 M, 45° C. for 15 minutes, measured 6 hours after heating
Experimental: Cultivation of MFH cells was carried out by using a 100 mm Petri dish for culturing cells into which 10 ml of a medium had been charged, at 37° C. for 24 hours in an incubator into which 5% of carbon dioxide was added. As the medium, a medium comprising Dulbecco's modified Eagle's Medium that contains 10% fetal bovine serum and, as antibiotics, penicillin G potassium (100 U/ml) and streptomycin sulfate ([…]) was used.
After 6 hours from completion of the heating, a culture broth was removed from the Petri dish for culturing, the cells were washed twice with a physiological saline, a liquid to dissolve the cells attached to a HSP70 immunoassay kit was added to the cells with a predetermined amount to extract HSP70 from the cells. This was quantitated by the immunoassay kit. Also, the cells extract was subjected to electrophoresis, and an amount of HSP70 was qualitatively examined by Western Blot.

geranylgeranyl acetone [GGA]
individuals whose tumors were completely regressed and cured (MFH cells): 8 individuals
induction of HSP70 in tumor tissue (HSP70 stain) (HSP70 [1]): induction of HSP70 was confirmed
expressed amount of the HSP70 after applying thermal stress (HSP70 [2]): increased depending on an amount of the GGA added
